Data from ChEMBL document CHEMBL1151512, “Design and synthesis of new potential photoaffinity labels for mammalian squalene epoxidase” (Bioorg Med Chem Lett, 1997).

System: HepG2
Test: In vitro cholesterol biosynthesis inhibition in human HepG2 by measuring the extend of cholesterol radiolabeling after incubation with [14C]mevalonate.
Assay type: functional, cell-based

SMILES | IC50 [nM]
CCN(CC#Cc1ccccc1N=[N+]=[N-])Cc1cccc(OCc2cc(-c3ccsc3)cs2)c1 | > 100000
CCN(C/C=C/C#CC(C)(C)C)Cc1cccc(OC[Si](C)(C)c2ccc(C#N)cc2)c1 | 60
CCN(C/C=C/C#CC(C)(C)C)Cc1cccc(OC[Si](C)(C)c2ccc(N=[N+]=[N-])cc2)c1 | 1200
CCN(CC#Cc1ccc(N=[N+]=[N-])cc1)Cc1cccc(OCc2cc(-c3ccsc3)cs2)c1 | 2100
CCN(CC#Cc1ccccc1)Cc1cccc(OCc2cc(-c3ccsc3)cs2)c1 | 70
CCN(CC#Cc1cccc(N=[N+]=[N-])c1)Cc1cccc(OCc2cc(-c3ccsc3)cs2)c1 | 540
